From patent publication US4020111A, “Propynyloxy alkyl arene insecticides” (priority 1975, dated 1977)

Tests used:
CH strain flies = experiment: spray application of pyrethrum, average percent knockdown with time; type: in vivo, housefly (CH strain); conditions: pyrethrum 100 + synergist 100 mg/cc
Description: The average percent knockdown of CH strain flies, as a function of time, resulting from spray application of pyrethrum, alone and with synergists, are given in Table XXXXIII. Duplicate tests were performed using 50 CH strain houseflies per test. Test solutions of 100 mg and 200mg of pyrethrum per cc of acetone, 200 mg of synergist per cc of acetone, and a mixture of 100 mg of pyrethrum and 100 mg of synergist per cc of acetone were prepared. The fifty CH strain houseflies were put in a 40 liter spray chamber and 1 cc of the test solution was sprayed into the test chamber with a spray pistol. The synergists alone at 200 mg/cc caused no knockdown.

[1] = system: Wilson strain house flies; type: in vivo, house fly (susceptible Wilson strain); conditions: for Contact Synergistic Ratio, Carbaryl (LC50 insecticide alone / LC50 with synergist): in vivo; for Contact Synergistic Ratio, Pyrolan (LC50 insecticide alone / LC50 with synergist): synergist to insecticide 5:1 by weight, 24 h
Method in brief: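 Flies held at room temperature in glass jars coated with acetone-deposited insecticide film, alone or with synergist at 5:1 synergist:insecticide by weight; 10% sugar supplied.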

[2] = system: Rutgers A strain house flies; experiment: topical application test, percent kill after 24 hours, Rutgers A strain; type: in vivo, house fly (resistant Rutgers A strain)
Description: In Table IX, and in the tables following it, the doses of topically applied insecticides and of synergists unless otherwise noted are expressed as micrograms per fly (μg/fly).
The synergistic effect of O-(2-propynyl) oximes with mobam was determined from topical application tests on susceptible, female, IN/WHO strain house flies and from tests on resistant, female, Rutgers A strain house flies. The synergist and insecticide were dissolved in ACS Grade acetone in such quantities that a 1.0μ liter volume applied to the thorax of 3-to-5 day old CO2 -anesthetized female adult house flies contained the desired dosage. After being treated, the flies were confined, 10 to a plaster petri dish, with 3-5 dishes/treatment, and held for 24-hr. observation of mortality. Reconstituted skim milk on cotton dental wicks was provided during the holding period. The percent kills after 24 hours are shown in Table X for the IN/WHO strain and Table XI for the Rutgers A strain.
The synergistic effect of benzyl 2-propynyl ethers with mobam was determined from topical application tests on IN/WHO and Rutgers A strain houseflies, following the procedure of Example 5. The percent kills after 24 hours are shown in Table XIV for the IN/WHO strain and in Table XV for the Rutgers A strain.
The synergistic effect with Diazinon of compounds I-B, I-D, I-F, I-G, I-H and I-I, identified in Tables I and Ia, was determined from topical application tests on IN/WHO strain houseflies and on Rutgers A strain houseflies by the procedure of Example 5. The percent kills after 24 hours are shown in Table XXV for the IN/WHO strain and Table XXVI for the Rutgers A strain.
The synergistic effect with GS 13005 of compounds I-A, I-B, I-D, I-E, I-F, I-G and I-I was determined from topical application tests to IN/WHO strain, Rutgers A strain and polyvalent CH strain houseflies using the procedures of Example 5. The percent kills of the IN/WHO strain flies after 24 hours are shown in Table XXVIII; of the Rutgers A strain, in Table XXIX; and of the polyvalent CH strain, in Table XXX. The doses of insecticide alone to the CH strain files caused 10-40% mortality.
The synergistic effect with Diazinon and GS 13005 of various of the benzyl 2-propynyl ethers identified in Tables II and IIa was determined by topical application tests on IN/WHO strain, and Rutgers A strain and polyvalent, resistant, CH strain houseflies using the procedures of Example 5. The percent kills after 24 hours of IN/WHO strain flies are shown in Table XXXI; of Rutgers A strain flies, in Table XXXII; and of CH strain flies, in Table XXXIII. The doses of insecticide alone to the CH strain flies caused 10-40% mortality.
The synergistic effect on IN/WHO strain flies and Rutgers A strain flies of compound IV-C with GS 13005 and with Diazinon was determined by the topical application procedure of Example 5. The percent kills of IN/WHO strain flies after 24 hours are shown in Tables XXXVI and XXXVII; the percent kills of Rutgers A strain flies are shown in Tables XXXVIII and XXXIX.

[3] = system: polyvalent resistant (CH strain) houseflies; experiment: whole plant or invertebrate; type: in vivo, housefly (CH strain); conditions: CH strain
[4] = Mobam 0.15 + synergist 0.75 μg/fly
[5] = Dimetilan 2 + synergist 4 μg/fly
[6] = GS 13005 1 + synergist 2 μg/fly
[7] = GS 13798 1 + synergist 2 μg/fly
[8] = Pyrethrum 2 + synergist 4 μg/fly
[9] = Mobam 0.30 + synergist 1.5 μg/fly
[10] = Diazinon 5 + synergist 10 μg/fly

| Compound | average percent knockdown (CH strain flies; 5 min) [%] | average percent knockdown (CH strain flies; 10 min) [%] | average percent knockdown (CH strain flies; 15 min) [%] | average percent knockdown (CH strain flies; 20 min) [%] | average percent knockdown (CH strain flies; 25 min) [%] | average percent knockdown (CH strain flies; 30 min) [%] | average percent knockdown (CH strain flies; 40 min) [%] | average percent knockdown (CH strain flies; 50 min) [%] | average percent knockdown (CH strain flies; 60 min) [%] | Contact Synergistic Ratio, Carbaryl (LC50 insecticide alone / LC50 with synergist) [1] | Contact Synergistic Ratio, Pyrolan (LC50 insecticide alone / LC50 with synergist) [1] | percent kill after 24 hours [2, 4] [%] | percent kill after 24 hours [3, 5] [%] | percent kill after 24 hours [3, 6] [%] | percent kill after 24 hours [3, 7] [%] | percent kill after 24 hours [3, 8] [%] | percent kill after 24 hours [2, 9] [%] | percent kill after 24 hours [3, 10] [%] | further results |
| --- | --- | --- | --- | --- | --- | --- | --- | --- | --- | --- | --- | --- | --- | --- | --- | --- | --- | --- | --- |
| C#CCON=C(C)c1ccc(Cl)cc1 [I-D] | 6 | 15 | 26 | 39 | 52 | 60 | 86 | 87 | 88 | 177 | 25 | 19 | 100 | 100 | 100 | 67 |  |  | percent kill after 24 hours ([2]; Mobam 0.60 + synergist 3.0 μg/fly): 100% |
| C#CCON=C(C)c1ccc2ccccc2c1 [I-F] |  |  |  |  |  |  |  |  |  | 200 | 50 |  | 100 | 100 | 95 | 35 | 38 |  | percent kill after 24 hours ([2]; Diazinon 3.0 + synergist 3.0 μg/fly): 95%; percent kill after 24 hours ([2]; GS 13005 1.0 + synergist 5.0 μg/fly): 95% |
| C#CCON=Cc1ccc(Cl)cc1Cl [I-G] | 7 | 12 | 31 | 36 | 59 | 66 | 89 | 93 | 94 |  |  |  |  | 100 |  | 47 |  |  | percent kill after 24 hours ([2]; Diazinon 3.0 + synergist 15 μg/fly): 100% |
| C#CCOCc1ccc(Cl)c(Cl)c1 [II-C] |  |  |  |  |  |  |  |  |  | 100 | 15 |  | 100 | 75 | 92 | 50 | 20 | 95 |  |
| C#CCOCc1ccc(Cl)c(Cl)c1Cl [II-D] |  |  |  |  |  |  |  |  |  | 200 | 30 |  | 100 | 95 | 100 | 30 |  | 60 |  |
| C#CCOCc1c(Cl)ccc(Cl)c1Cl [II-E] | 5 | 9 | 17 | 44 | 55 | 59 | 77 | 93 | 95 | 120 | 20 | 17 | 100 | 100 | 100 | 78 |  | 65 | percent kill after 24 hours ([2]; synergist alone 7.5 μg/fly): 0% |
